# Source: publication PMC12775434, “Ultra-large virtual screening unveils potent agonists of the neuromodulatory orphan receptor GPR139” (Nature Communications, 2025)
# “And” between values parts separate entries of the source, which are not always exact repeats. Identical values can stand only once.
# Key:
# Type in all cases: cell-based
# [1] = target: T1, GPR139 (Homo sapiens, UniProt Q6DWJ6); experiment: Ca2+ mobilization assay, agonist mode, stable GPR139-CHOk1 cell line; conditions: for EC50 / Emax: Supplementary Table 2, mean ± SEM; for EC50: read-out: pEC50 Ca2+ (converted); for Emax: normalized to Lundbeck Cmp 1a, read-out: Emax (%) Ca2+
# T1 sequence (Q6DWJ6 1-353): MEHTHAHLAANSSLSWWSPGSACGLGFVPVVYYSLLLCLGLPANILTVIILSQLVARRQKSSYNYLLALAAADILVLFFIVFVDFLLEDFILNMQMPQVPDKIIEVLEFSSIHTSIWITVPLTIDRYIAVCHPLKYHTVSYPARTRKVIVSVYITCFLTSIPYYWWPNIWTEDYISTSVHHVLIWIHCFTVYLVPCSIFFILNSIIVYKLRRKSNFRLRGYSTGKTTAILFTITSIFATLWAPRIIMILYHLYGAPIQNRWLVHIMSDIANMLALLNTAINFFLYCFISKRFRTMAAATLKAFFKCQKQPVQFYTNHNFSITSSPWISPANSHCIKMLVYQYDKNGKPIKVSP
# Method in brief: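 Agonist activity of compounds is assessed in stably transfected CHO-K1 cells using the calcium dye Fluo-4 at 37 °C in HEPES-buffered HBSS (pH 7.4). Efficacy is expressed relative to the reference agonist Lundbeck Cmp 1a, set as 100%.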
# [2] = target: T1, GPR139; experiment: Ca2+ mobilization assay, antagonist mode (EC80 800 nM Lundbeck Cmp 1a after 20 min preincubation), GPR139-CHOk1; conditions: individual replicates (Supplementary Figure 4)
# Method in brief: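 Antagonist mode: 800 nM (EC80) reference agonist Lundbeck Cmp 1a added following 20 min pre-incubation with 10 µM compound. GPR139-CHOk1 cells, Fluo-4 dye, probenecid-containing HEPES buffer pH 7.4; intracellular Ca2+ measured at 37 °C (ex 485, em 525 nm).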
# [3] = target: T2, human muscarinic acetylcholine M1 receptor (M1R) (Homo sapiens, UniProt P11229); experiment: Ca2+ mobilization counter-screen in M1R-CHOk1 cells; conditions: individual replicates (Supplementary Figure 5)
# T2 sequence (P11229 1-460): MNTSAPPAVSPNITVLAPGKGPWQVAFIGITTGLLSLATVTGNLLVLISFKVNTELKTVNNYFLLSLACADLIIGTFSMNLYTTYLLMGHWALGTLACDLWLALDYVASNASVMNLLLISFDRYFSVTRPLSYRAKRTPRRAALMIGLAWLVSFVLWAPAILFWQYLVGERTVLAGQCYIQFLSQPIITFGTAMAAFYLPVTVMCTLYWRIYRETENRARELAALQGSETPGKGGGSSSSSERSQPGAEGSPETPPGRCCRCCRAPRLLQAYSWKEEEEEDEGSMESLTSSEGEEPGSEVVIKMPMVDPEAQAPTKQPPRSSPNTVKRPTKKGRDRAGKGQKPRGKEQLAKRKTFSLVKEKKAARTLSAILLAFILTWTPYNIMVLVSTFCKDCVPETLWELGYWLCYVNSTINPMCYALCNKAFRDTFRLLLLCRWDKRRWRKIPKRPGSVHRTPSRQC
# Procedure: Primary screening and pharmacological characterization of compounds were performed using a CHO-K1 cell line that stably expresses human GPR139 (GPR139-CHOk1). The GPR139-CHOk1 cell line was kindly provided by H. Lundbeck A/S, Denmark[24]. GPR139-CHOk1 cells were grown in Ham’s F-12 Kaighn’s Modification Medium (ThermoFisher #21127030) supplemented with 10% dialyzed fetal bovine serum (US origin, ThermoFisher #26400044), 100 units/mL Penicillin-Streptomycin (ThermoFisher #15140122), and 1 mg/mL Geneticin (ThermoFisher #11811031). […] M1R-CHOk1 cells were purchased from The Missouri S&T cDNA Resource Center (#CEM100TN00). M1R-CHOk1 cells were grown in Ham’s F12 Medium (ThermoFisher #21765029) supplemented with 10% fetal bovine serum (Brazilian origin, ThermoFisher #10270106), 100 units/mL Penicillin-Streptomycin, and 0.25 mg/mL Geneticin. HEK293A cells transiently transfected with GPR139 were used for additional pharmacological assessment of signaling pathways activated by GPR139. HEK239A cells were generously provided by Dr. Asuka Inoue, Tohoku University, Japan. HEK293A cells were grown in Dulbecco’s Modified Eagle Medium (ThermoFisher #31966047) supplemented with 10% dialyzed fetal bovine serum and 100 units/mL Penicillin-Streptomycin. Cell lines were maintained at 37 °C in humidified incubator equilibrated with 5% CO2.
# 30,000 GPR139- or M1R-CHOk1 cells/well were seeded in black clear bottom tissue culture treated 96-well plates (Greiner #655090) and grown for 20–24 h. Cells were washed with HEPES buffer (Hank’s Balanced Salt Solution (HBBS) supplemented with 20 mM HEPES, 1 mM MgCl2, and 1 mM CaCl2; pH 7.4). Cells were loaded with 50 µL of 2 µM Fluo-4 AM dye (ThermoFisher #F14202) in HEPES buffer supplemented with 2.5 mM probenecid and 0.01% Pluronic F-68 (ThermoFisher #24040032) for 1 h at 37 °C. Cells were washed with HEPES buffer. 50 µL HEPES buffer supplemented with 2.5 mM probenecid was added, and the cells were incubated for 10 min at 37 °C before measurement. 50 µL test compounds diluted in HEPES buffer from DMSO stocks (final DMSO concentration of maximally 0.3%) were added automatically after baseline measurements. The intracellular calcium mobilization was measured on a FlexStation 3 Multimode Microplate Reader (Molecular Devices) at 37 °C with filters for excitation of 485 nm and emission of 525 nm.
# [4] = Agonist mode, individual replicates (Supplementary Figure 4)
# [5] = log [Compound] M = -4.5, individual replicate columns
# [6] = log [Compound] M = -5.0, individual replicate columns
# [7] = log [Compound] M = -5.5, individual replicate columns
# [8] = log [Compound] M = -6.0, individual replicate columns
# [9] = log [Compound] M = -6.5, individual replicate columns
# [10] = log [Compound] M = -7.0, individual replicate columns
# [11] = log [Compound] M = -7.5, individual replicate columns
# [12] = log [Compound] M = -8.0, individual replicate columns
# [13] = log [Compound] M = -8.5, individual replicate columns
# [14] = log [Compound] M = -9.0, individual replicate columns
SMILES,"Ca2+ signal (% of Cmp 1a) [1, 4]",EC50 [1],Emax [1],"Ca2+ signal (% of Cmp 1a) [1, 5]","Ca2+ signal (% of Cmp 1a) [1, 6]","Ca2+ signal (% of Cmp 1a) [1, 7]","Ca2+ signal (% of Cmp 1a) [1, 8]","Ca2+ signal (% of Cmp 1a) [1, 9]","Ca2+ signal (% of Cmp 1a) [1, 10]","Ca2+ signal (% of Cmp 1a) [1, 11]","Ca2+ signal (% of Cmp 1a) [1, 12]","Ca2+ signal (% of Cmp 1a) [1, 13]","Ca2+ signal (% of Cmp 1a) [1, 14]",Ca2+ signal (% of Cmp 1a) [2],Ca2+ signal (% of Carbachol) [3],change in potency with larger substituents on the thiophene ring ([1]; Ca2+ mobilization),fold decrease in potency relative to a similar phenyl substituted compound (1.3) ([1]; Ca2+ mobilization EC50)
"Cc1csc(-c2nc(CC(=O)NC(C)c3ccccc3)no2)c1 (centres unmarked) [Compound 1.11, CC(C1=CC=CC=C1)NC(CC2=NOC(C3=CC(C)=CS3)=N2)=O]",83 % of Cmp 1a and 63 % of Cmp 1a and 71 % of Cmp 1a,0.2 µM,105 ± 10%,119 % of Cmp 1a and 103 % of Cmp 1a and 72 % of Cmp 1a and 99 % of Cmp 1a,117 % of Cmp 1a and 110 % of Cmp 1a and 94 % of Cmp 1a and 97 % of Cmp 1a,109 % of Cmp 1a and 87 % of Cmp 1a and 67 % of Cmp 1a and 96 % of Cmp 1a,94 % of Cmp 1a and 70 % of Cmp 1a and 59 % of Cmp 1a and 79 % of Cmp 1a,69 % of Cmp 1a and 58 % of Cmp 1a and 32 % of Cmp 1a and 65 % of Cmp 1a,58 % of Cmp 1a and 48 % of Cmp 1a and 20 % of Cmp 1a and 43 % of Cmp 1a,38 % of Cmp 1a and -18 % of Cmp 1a and -19 % of Cmp 1a and 30 % of Cmp 1a,31 % of Cmp 1a and 1.33 % of Cmp 1a and -4 % of Cmp 1a and 6.33 % of Cmp 1a,6 % of Cmp 1a and 1.67 % of Cmp 1a and 4.67 % of Cmp 1a and 3.33 % of Cmp 1a,10 % of Cmp 1a and 7 % of Cmp 1a and -2.67 % of Cmp 1a and 1.33 % of Cmp 1a,0 % of Cmp 1a and -3 % of Cmp 1a and -25 % of Cmp 1a,-8 % of Carbachol and 27 % of Carbachol and -10 % of Carbachol,–,–
"CCc1ccc(-c2nc(CC(=O)NC(C)c3ccccc3)no2)s1 (centres unmarked) [Compound 1.12, CCC1=CC=C(C2=NC(CC(NC(C3=CC=CC=C3)C)=O)=NO2)S1]",86 % of Cmp 1a and 84 % of Cmp 1a and 95 % of Cmp 1a,0.398 µM,93 ± 4%,90 % of Cmp 1a and 89 % of Cmp 1a and 81 % of Cmp 1a and 78 % of Cmp 1a,105 % of Cmp 1a and 80 % of Cmp 1a and 63 % of Cmp 1a and 94 % of Cmp 1a,111 % of Cmp 1a (2×) and 80 % of Cmp 1a and 55 % of Cmp 1a,66 % of Cmp 1a and 61 % of Cmp 1a and 43 % of Cmp 1a and 78 % of Cmp 1a,49 % of Cmp 1a and 48 % of Cmp 1a and 28 % of Cmp 1a and 56 % of Cmp 1a,21 % of Cmp 1a and 33 % of Cmp 1a and 9 % of Cmp 1a and 38 % of Cmp 1a,6 % of Cmp 1a and 10 % of Cmp 1a and 3.55 % of Cmp 1a and 24 % of Cmp 1a,-0.628 % of Cmp 1a and 0.281 % of Cmp 1a and 16 % of Cmp 1a and 5 % of Cmp 1a,-1.24 % of Cmp 1a and 1.81 % of Cmp 1a and 5 % of Cmp 1a and 9 % of Cmp 1a,6.67 % of Cmp 1a and -5 % of Cmp 1a and 1.66 % of Cmp 1a and 6 % of Cmp 1a,15 % of Cmp 1a and 8 % of Cmp 1a and -3.33 % of Cmp 1a,8 % of Carbachol and 5.44 % of Carbachol and 4 % of Carbachol,three-fold reduction to a complete loss of activity,–
"Cc1cccc(-c2nc(CC(=O)NC(C)c3ccccc3)no2)n1 (centres unmarked) [Compound 1.13, CC(C1=CC=CC=C1)NC(CC2=NOC(C3=NC(C)=CC=C3)=N2)=O]",87 % of Cmp 1a and 109 % of Cmp 1a and 94 % of Cmp 1a,0.398 µM,95 ± 10%,113 % of Cmp 1a and 100 % of Cmp 1a and 105 % of Cmp 1a and 55 % of Cmp 1a,98 % of Cmp 1a and 101 % of Cmp 1a and 89 % of Cmp 1a and 78 % of Cmp 1a,85 % of Cmp 1a and 87 % of Cmp 1a and 83 % of Cmp 1a and 50 % of Cmp 1a,76 % of Cmp 1a and 73 % of Cmp 1a (2×) and 42 % of Cmp 1a,49 % of Cmp 1a (2×) and 40 % of Cmp 1a and 22 % of Cmp 1a,28 % of Cmp 1a and 33 % of Cmp 1a and 12 % of Cmp 1a (2×),0 % of Cmp 1a and 14 % of Cmp 1a and -10 % of Cmp 1a and 13 % of Cmp 1a,8 % of Cmp 1a and 0.667 % of Cmp 1a and -4 % of Cmp 1a and -5 % of Cmp 1a,8 % of Cmp 1a and -4.67 % of Cmp 1a and -2.67 % of Cmp 1a and -3 % of Cmp 1a,2 % of Cmp 1a (2×) and -0.333 % of Cmp 1a and -15 % of Cmp 1a,7 % of Cmp 1a and 16 % of Cmp 1a and -17 % of Cmp 1a,-3 % of Carbachol and 3 % of Carbachol and 7 % of Carbachol,–,4- to 16 fold
